Activity calls are given as the source filed them.
Legend:
[1] = molecular target: Neuronal acetylcholine receptor; alpha3/beta4 (Homo sapiens) (UniProt P30926+P32297); assay: Antagonist activity at human alpha3beta4 nAChR expressed in Xenopus laevis oocytes assessed as inhibition of Ach-induced response at 1 to 30 uM incubated for 5 mins by two electrode voltage-clamp assay; type: cell-based; details: Oocyte, filed as antagonist, dose 1-30 µM
[2] = molecular target: T1, GABA-B receptor (Homo sapiens) (UniProt Q9UBS5+O75899); assay: Agonist activity at human GABAB expressed in HEK293T cells co-transfected with human CaV2.2-alpha2delta1 channel assessed as inhibition of CaV2.2-mediated Ba2+ peak-current amplitude at 100 nM at -80 to 10 mV holding potential after 72 hrs by whole cell patch clamp assay relative to control; type: cell-based; details: filed as agonist
[3] = molecular target: GABA-B receptor (Homo sapiens, UniProt O75899+Q9UBS5); assay: Agonist activity at human GABAB expressed in HEK293T cells co-transfected with human CaV2.2 channel assessed as inhibition of CaV2.2-mediated Ba2+ peak-current amplitude at -80 to 10 mV holding potential after 72 hrs by whole cell patch clamp assay; type: cell-based
[4] = molecular target: Nicotinic acetylcholine receptor alpha6/alpha3/beta4 (Homo sapiens) (UniProt P30926+P32297+Q15825); assay: Antagonist activity at human alpha6/alpha3beta4 nAChR expressed in Xenopus laevis oocytes assessed as inhibition of Ach-induced response at 1 to 30 uM incubated for 5 mins by two electrode voltage-clamp assay; type: cell-based; details: Oocyte, filed as antagonist, dose 1-30 µM
[5] = molecular target: T2, Neuronal acetylcholine receptor; alpha3/beta2 (Homo sapiens) (UniProt P17787+P32297); assay: Antagonist activity at human alpha3beta2 nAChR expressed in Xenopus laevis oocytes assessed as inhibition of Ach-induced response incubated for 5 mins by two electrode voltage-clamp assay; type: cell-based; details: Oocyte, filed as antagonist, dose 1-30 µM
[6] = molecular target: T1, GABA-B receptor (Homo sapiens); assay: Agonist activity at human GABAB expressed in HEK293T cells co-transfected with human CaV2.2-alpha1B channel assessed as inhibition of CaV2.2-mediated Ba2+ peak-current amplitude at 100 nM at -80 to 10 mV holding potential after 72 hrs by whole cell patch clamp assay relative to control; type: cell-based; details: filed as agonist
[7] = molecular target: T3, Neuronal acetylcholine receptor; alpha9/alpha10 (Homo sapiens) (UniProt Q9UGM1+Q9GZZ6); assay: Antagonist activity at human alpha9alpha10 nAChR expressed in Xenopus laevis oocytes assessed as inhibition of Ach-induced response incubated for 5 mins by two electrode voltage-clamp assay; type: cell-based; details: Oocyte, filed as antagonist, dose 1-30 µM
[8] = molecular target: Neuronal acetylcholine receptor subunit alpha-7 (Homo sapiens) (UniProt P36544); assay: Antagonist activity at human alpha7 nAChR expressed in Xenopus laevis oocytes assessed as inhibition of Ach-induced response incubated for 5 mins by two electrode voltage-clamp assay; type: cell-based; details: Oocyte, dose 1-30 µM
[9] = molecular target: T1, GABA-B receptor (Homo sapiens); assay: Agonist activity at human GABAB expressed in HEK293T cells co-transfected with human CaV2.2-beta3 channel assessed as inhibition of CaV2.2-mediated Ba2+ peak-current amplitude at 100 nM at -80 to 10 mV holding potential after 72 hrs by whole cell patch clamp assay relative to control; type: cell-based; details: filed as agonist
[10] = molecular target: T2, Neuronal acetylcholine receptor; alpha3/beta2 (Homo sapiens); assay: Antagonist activity at human alpha3beta2 nAChR expressed in Xenopus laevis oocytes assessed as inhibition of Ach-induced response at 30 uM incubated for 5 mins by two electrode voltage-clamp assay relative to control; type: cell-based; details: Oocyte
[11] = molecular target: T3, Neuronal acetylcholine receptor; alpha9/alpha10 (Homo sapiens); assay: Antagonist activity at human alpha9/alpha10 nAChR expressed in Xenopus laevis oocytes assessed as inhibition of Ach-induced response at 30 uM incubated for 5 mins by two electrode voltage-clamp assay; type: cell-based; details: Oocyte
[12] = system: Rattus norvegicus; assay: Antiallodynic activity in Sprague-Dawley rat model of neuropathic mechanical allodynia assessed as increase in paw withdrawal threshold at 0.1 mg/kg, IM measured at 6 hr post last dose by von Frey test; type: functional
[13] = system: Rattus norvegicus; assay: Antiallodynic activity in Sprague-Dawley rat model of neuropathic mechanical allodynia assessed as increase in paw withdrawal threshold at 0.1 mg/kg, IM measured at 2 hr post last dose by von Frey test; type: functional
[14] = system: Rattus norvegicus; assay: Antiallodynic activity in Sprague-Dawley rat model of neuropathic mechanical allodynia assessed as increase in paw withdrawal threshold administered intramuscularly measured at 1 to 24 hrs post last dose by von Frey test; type: functional, organism-based; details: dose 0.03-0.1 mg/kg, time 1-24 hrs
[15] = system: Rattus norvegicus; assay: Antiallodynic activity in Sprague-Dawley rat model of neuropathic mechanical allodynia assessed as increase in paw withdrawal threshold at 0.1 mg/kg, IM measured at 4 hr post last dose by von Frey test; type: functional
[16] = system: Rattus norvegicus; assay: Antiallodynic activity in Sprague-Dawley rat model of neuropathic mechanical allodynia assessed as increase in paw withdrawal threshold at 0.1 mg/kg, IM measured at 24 hrs post last dose by von Frey test; type: functional
[17] = system: Rattus norvegicus; assay: Antiallodynic activity in Sprague-Dawley rat model of neuropathic mechanical allodynia assessed as increase in paw withdrawal threshold at 0.1 mg/kg, IM measured at 1 hr post last dose by von Frey test; type: functional

Sequence of GABA-B receptor (Q9UBS5 whole entry): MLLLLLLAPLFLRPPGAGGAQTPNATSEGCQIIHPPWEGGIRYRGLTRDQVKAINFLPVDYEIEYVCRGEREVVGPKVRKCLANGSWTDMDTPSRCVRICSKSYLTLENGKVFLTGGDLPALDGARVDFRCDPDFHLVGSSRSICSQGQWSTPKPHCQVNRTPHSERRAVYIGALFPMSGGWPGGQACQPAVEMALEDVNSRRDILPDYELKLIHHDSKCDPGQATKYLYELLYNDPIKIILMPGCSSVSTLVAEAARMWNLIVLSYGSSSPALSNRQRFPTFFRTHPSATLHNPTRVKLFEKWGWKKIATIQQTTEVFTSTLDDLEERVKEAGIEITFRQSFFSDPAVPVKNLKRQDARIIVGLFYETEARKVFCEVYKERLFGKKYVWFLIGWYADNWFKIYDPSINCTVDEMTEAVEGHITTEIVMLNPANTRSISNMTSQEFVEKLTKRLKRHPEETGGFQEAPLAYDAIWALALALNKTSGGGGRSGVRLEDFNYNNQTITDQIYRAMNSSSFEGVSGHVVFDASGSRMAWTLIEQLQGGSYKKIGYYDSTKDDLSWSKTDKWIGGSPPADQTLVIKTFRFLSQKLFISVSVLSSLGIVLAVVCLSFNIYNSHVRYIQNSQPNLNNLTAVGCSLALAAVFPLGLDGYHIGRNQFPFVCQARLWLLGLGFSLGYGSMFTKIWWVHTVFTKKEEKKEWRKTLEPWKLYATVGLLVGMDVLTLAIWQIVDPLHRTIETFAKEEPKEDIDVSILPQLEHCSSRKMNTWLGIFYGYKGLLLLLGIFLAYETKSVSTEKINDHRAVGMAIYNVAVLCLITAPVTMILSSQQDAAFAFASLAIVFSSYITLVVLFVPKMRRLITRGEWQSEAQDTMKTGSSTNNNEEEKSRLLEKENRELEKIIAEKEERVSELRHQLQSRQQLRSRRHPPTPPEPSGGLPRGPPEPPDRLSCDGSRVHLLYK
Sequence of GABA-B receptor (O75899 whole entry): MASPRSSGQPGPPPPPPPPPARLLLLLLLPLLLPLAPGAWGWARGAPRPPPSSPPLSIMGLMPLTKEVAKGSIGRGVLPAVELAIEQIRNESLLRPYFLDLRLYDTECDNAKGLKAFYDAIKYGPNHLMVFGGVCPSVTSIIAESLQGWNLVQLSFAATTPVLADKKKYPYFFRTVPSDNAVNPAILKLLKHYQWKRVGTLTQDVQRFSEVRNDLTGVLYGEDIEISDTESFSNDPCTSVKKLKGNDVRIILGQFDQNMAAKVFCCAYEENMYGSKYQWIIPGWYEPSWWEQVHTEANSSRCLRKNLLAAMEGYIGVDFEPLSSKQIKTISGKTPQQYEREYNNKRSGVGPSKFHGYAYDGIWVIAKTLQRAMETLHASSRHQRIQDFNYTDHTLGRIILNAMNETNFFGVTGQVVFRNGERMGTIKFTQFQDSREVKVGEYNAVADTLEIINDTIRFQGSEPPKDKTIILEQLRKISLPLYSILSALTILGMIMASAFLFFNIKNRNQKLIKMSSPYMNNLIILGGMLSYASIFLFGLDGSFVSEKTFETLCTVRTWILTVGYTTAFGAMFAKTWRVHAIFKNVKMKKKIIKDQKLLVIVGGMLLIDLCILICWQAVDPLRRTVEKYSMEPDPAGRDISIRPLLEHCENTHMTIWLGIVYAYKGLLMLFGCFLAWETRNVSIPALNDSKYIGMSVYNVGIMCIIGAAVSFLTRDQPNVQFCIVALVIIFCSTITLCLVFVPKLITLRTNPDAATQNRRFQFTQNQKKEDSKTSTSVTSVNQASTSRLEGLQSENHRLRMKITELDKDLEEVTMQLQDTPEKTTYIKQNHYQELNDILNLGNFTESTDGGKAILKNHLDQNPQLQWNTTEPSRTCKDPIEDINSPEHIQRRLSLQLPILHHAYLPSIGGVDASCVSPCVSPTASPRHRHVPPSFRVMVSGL
Sequence of Neuronal acetylcholine receptor subunit alpha-7 (Homo sapiens) (P36544 whole entry): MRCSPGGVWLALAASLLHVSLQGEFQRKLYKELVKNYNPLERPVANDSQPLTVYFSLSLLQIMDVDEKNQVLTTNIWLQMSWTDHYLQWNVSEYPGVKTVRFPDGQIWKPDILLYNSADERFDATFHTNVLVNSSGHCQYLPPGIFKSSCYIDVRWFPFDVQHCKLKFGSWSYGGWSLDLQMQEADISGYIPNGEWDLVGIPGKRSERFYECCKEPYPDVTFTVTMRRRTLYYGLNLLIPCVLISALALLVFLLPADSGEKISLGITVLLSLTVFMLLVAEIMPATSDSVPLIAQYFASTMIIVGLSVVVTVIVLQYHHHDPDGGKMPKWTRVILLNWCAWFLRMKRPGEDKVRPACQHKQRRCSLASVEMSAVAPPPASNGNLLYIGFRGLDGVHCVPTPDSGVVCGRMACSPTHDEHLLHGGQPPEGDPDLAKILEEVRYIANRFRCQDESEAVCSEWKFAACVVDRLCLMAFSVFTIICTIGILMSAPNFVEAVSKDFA

Structure (SMILES) | inhibition [1] | inhibition [2] [%] | IC50 [3] [nM] | inhibition [4] | inhibition [5] | inhibition [6] [%] | inhibition [7] | inhibition ([8]; filed as antagonist) | inhibition [9] [%] | inhibition ([10]; filed as antagonist) [%] | inhibition [11] | Activity [12] [g] | inhibition [10] | Activity [13] [g] | Activity [14] | Activity [15] [g] | inhibition [8] | Activity [16] [g] | Activity [17] [g]
CC[C@H](C)[C@@H]1NC(=O)[C@H](CCC(=O)O)NC(=O)[C@@H]2CCCN2C(=O)[C@H](Cc2cnc[nH]2)NC(=O)[C@H](CC(=O)O)NC(=O)[C@H](Cc2ccc(O)cc2)NC(=O)[C@H](CC(N)=O)NC(=O)[C@@H]2CSSC[C@H](NC(=O)[C@@H](NC(=O)CN)CSSC[C@@H](C(N)=O)NC1=O)C(=O)N[C@@H](CO)C(=O)N[C@@H](CC(=O)O)C(=O)N1CCC[C@H]1C(=O)N[C@@H](CCCNC(=N)N)C(=O)N2 | Active | 25 | 21 | Active | Dose-Dependent Effect | 25 | Dose-Dependent Effect | Dose-Dependent Effect | 25 |  |  |  |  |  |  |  |  |  | 
CC[C@H](C)[C@@H]1NC(=O)[C@H](CCC(=O)O)NC(=O)[C@@H]2CCCN2C(=O)[C@H](Cc2cnc[nH]2)NC(=O)[C@H](CC(=O)O)NC(=O)[C@H](Cc2ccc(O)cc2)NC(=O)[C@H](CC(N)=O)NC(=O)[C@@H]2CCCC[C@@H](NC(=O)CN)C(=O)N[C@H](CSSC[C@@H](C(N)=O)NC1=O)C(=O)N[C@@H](CO)C(=O)N[C@@H](CC(=O)O)C(=O)N1CCC[C@H]1C(=O)N[C@@H](CCCNC(=N)N)C(=O)N2 |  | 0.06 |  |  |  | 0.06 |  |  | 0.06 | > 90 |  |  |  |  |  |  |  |  | 
CC[C@H](C)[C@@H]1NC(=O)[C@H](CCC(=O)O)NC(=O)[C@@H]2CCCN2C(=O)[C@H](Cc2cnc[nH]2)NC(=O)[C@H](CC(=O)O)NC(=O)[C@H](Cc2ccc(O)cc2)NC(=O)[C@H](CC(N)=O)NC(=O)[C@@H]2CC#CC[C@@H](NC(=O)CN)C(=O)N[C@H](CSSC[C@@H](C(N)=O)NC1=O)C(=O)N[C@@H](CO)C(=O)N[C@@H](CC(=O)O)C(=O)N1CCC[C@H]1C(=O)N[C@@H](CCCNC(=N)N)C(=O)N2 |  | 26 | 13 |  |  | 26 |  |  | 26 |  | inactive | 4.88 | inactive | 5.5 | Dose-Dependent Effect | 5.5 | inactive | 3.88 | 5.38

From ChEMBL document CHEMBL4819053, “Alkyne-Bridged α-Conotoxin Vc1.1 Potently Reverses Mechanical Allodynia in Neuropathic Pain Models” (J Med Chem, 2021)
